Laboratory results taken from patent US20160279207A1, “TARGETING GDF6 AND BMP SIGNALING FOR ANTI-MELANOMA THERAPY” (University of Massachusetts, priority 2015, published 2016).
“Also recorded” adds a separate entry of the source.

B1: recombinant GDF6 protein: recombinant GDF6 protein added to culture media (protein, UniProt Q6KF10 336-455, looked up)
Growth/differentiation factor …: TAFASRHGKRHGKKSRLRCSKKPLHVNFKELGWDDWIIAPLEYEAYHCEGVCDFPLRSHLEPTNHAIIQTLMNSMDPGSTPPSCCVPTKLTPISILYIDAGNNVVYKQYEDMVVESCGCR

Assays:
[1] = system: A375 melanoma cells; assay: Clonogenic growth (colony formation) assay; type: cell-based, human; details: for colonies in clonogenic growth assay after shRNA treatment: A375 cells, crystal violet staining; for colonies in clonogenic growth assay after shRNA treatment / colonies in clonogenic growth assay, empty vector-transfected cells: vs shGFP; for colonies in clonogenic growth assay, cells expressing SMAD1 phosphomimic (SMAD1DVD): SMAD1DVD cells treated with shRNA; for colonies in clonogenic growth assay, empty vector-transfected cells: empty vector cells treated with shRNA
Experimental: For growth curves 50,000 live cells were seeded per well in a 6-well tissue culture plate on day 0. The numbers of live cells were calculated every day using an automated cell counter (Nexcelom Bioscience Cellometer Auto T4) following standard procedures. All assays were performed with technical replicates. For clonogenic assays, 3,000 live cells were seeded in a 10 cm tissue culture plate. […] ImageJ was used to quantify the number of colonies. In assays with DMH1 treatment, control or DMH1-containing media was replaced every other day. For soft agar assays a 0.5% bottom layer (1:1 with 1% agar and 2X DMEM with 20% FBS) and a 0.3% top layer (1:1 with 0.6% agar and 2× DMEM with 20% FBS) were used. 3,000 live cells per well of a 6-well tissue culture plate were added in the top layer. Media was added initially then replaced every 3 days. After 3 weeks, colonies were stained with nitroblue tetrazolium chloride overnight at 37° C. Once stained, individual wells were photographed, and ImageJ was used to count the number of colonies. All these assays were done in triplicate, and experiments were repeated at least twice. A representative image of each has been shown.

[2] = system: A375 melanoma cells; assay: A375 melanoma xenograft in nude mice, tumor volume; type: in vivo, mouse; details: for tumor formation (tumor volume) of shRNA-treated cells xenotransplanted into mice: A375 cells treated with shRNA before transplantation, vs shGFP/shEGFP; for xenograft tumor formation, SMAD1 phosphomimic cells: SMAD1DVD cells with GDF6 knocked down; for xenograft tumor formation, empty vector-transfected cells: empty vector cells with GDF6 knocked down
Experimental: An art-accepted model to test for an agent's effects on melanoma is that of using immunocompromised (“nude”) mice which are then injected subcutaneously with melanoma cells, and then concomitant with injection of the cells, sometime after injection, and/or after tumor establishment, the test agent is appropriately administered (e.g., intravenously, peritoneally, orally, etc.). Control and treated animals are monitored in part for tumor growth, tumor stabilization, and tumor regression (see for example, Yang et al. 2010. Cancer Res., 70:5518-5527 and Bollag et al. 2010. Nature. 467:596-599).
All animal protocols were approved by the UMMS Institution Animal Care and Use Committee (A-2016, A-2171). Mice were randomly allocated to individual experimental groups. No blinding was done as animal groups were identified by tagging and cage labeling. Animals were excluded, according to pre-established criteria, if the tumor volume reached >1,000 mm^3; if tumor size or location affected the mobility or general health of animal, the animal was euthanized and excluded from the experiment or the complete experiment was terminated. A375 cells stably expressing an EGFP or GDF6 or SMAD1 shRNA and/or empty vector or GDF6-expressing vector or SMAD1DVD-overexpressing vector were subcutaneously injected into the flanks of 6-8-week-old BALB/c nu/nu female mice (Taconic Farms) to produce orthotopic primary tumor. Primary tumor growth was monitored every 3 days with calipers, and the tumor volume was calculated as described previously (C. Gazin, N. Wajapeyee, S. Gobeil, C. M. Virbasius, M. R. Green, An elaborate pathway required for Ras-mediated epigenetic silencing. Nature 449, 1073-1077 (2007)). For GDF6 knockdown, SMAD1 knockdown and epistasis experiments, 1×10^7 live cells were injected. For GDF6 overexpression experiments, 1×10^6 live cells were injected. For GDF6 overexpression and GDF6 knockdowns, a representative of two independent experiments (n=3 animals per experiment) is shown. For DMH1 drug experiments, 1×10^6 live A375 cells were subcutaneously injected in the flanks of BALB/c nu/nu female mice. Beginning on the day cells were injected, mice were injected intraperitoneally with vehicle 12.5% 2-hydroxypropyl-β-cyclodextrin or 25 mg/kg DMH1 in vehicle every other day. The growth of the tumor was monitored as described above. This experiment was repeated twice and the weighted average of both experiments (n=8 total) is represented.

[3] = system: GDF6; assay: Western blot of GDF6 protein after shRNA knockdown; type: cell-based, human; details: melanoma cells, vs shGFP control
Experimental: Lentiviral infections were performed as described previously (C. J. Ceol et al., The histone methyltransferase SETDB 1 is recurrently amplified in melanoma and accelerates its onset. (Nature 471, 513-517 (2011)). For stable gene knockdowns, we used pLKO-1 lentiviral vectors to deliver short hairpin sequences (shRNAs) (obtained from the RNAi Consortium (TRC)/Broad Institute through the UMMS RNAi core facility) specific for GDF6 (GDF6.1: TRCN0000141818, target sequence: […] (SEQ ID NO:10); GDF6.2: TRCN0000140097, target sequence: […] (SEQ ID NO:11)) or SMAD1 (SMAD1.1: TRCN0000021781, target sequence: […] (SEQ ID NO:12); SMAD1.2: TRCN0000021782, target sequence: […] (SEQ ID NO:13)) or EGFP (TRCN0000072181, target sequence: […] (SEQ ID NO:14)). Virus was made using a second generation lentiviral packaging system in HEK293T cells and titrated using a p24 ELISA kit (Clontech). Cells were infected with virus at a multiplicity of infection of 2.5 with 8 μg/ml polybrene followed by puromycin selection (2 μm/ml) for 2 days in appropriate media. For overexpression, we used Gateway cloning (Life Technologies) to insert the GDF6 ORF (GE life sciences) or SMAD1DVD ORF (provided by Takenobu Katagiri) into the pLenti CMV Hygro DEST (w117-1) vector (provided by Paul Kaufman). […]

[4] = system: A375 melanoma cells; assay: Apoptosis markers: Annexin5 staining and Caspase 3/7 cleavage; type: cell-based, human; details: vs shGFP
Experimental: A375 melanoma cells after knockdown of GDF6 or SMAD1 or EGFP were stained for Annexin V and 7-AAD (BD Pharmingen PR Annexin V Apoptosis Detection kit) as per manufacturer's instructions, followed by flow cytometry using a FACSCalibur instrument (BD Biosciences). Caspase3/7 activity was measured using the Caspase-Glo 3/7 assay (Promega) as per manufacturer's instructions.

[5] = system: SMAD1; assay: Western blot of SMAD1 protein after shRNA knockdown; type: cell-based, human; details: melanoma cells, vs shGFP control
Experimental: Lentiviral infections were performed as described previously (C. J. Ceol et al., The histone methyltransferase SETDB 1 is recurrently amplified in melanoma and accelerates its onset. (Nature 471, 513-517 (2011)). For stable gene knockdowns, we used pLKO-1 lentiviral vectors to deliver short hairpin sequences (shRNAs) (obtained from the RNAi Consortium (TRC)/Broad Institute through the UMMS RNAi core facility) specific for GDF6 (GDF6.1: TRCN0000141818, target sequence: […] (SEQ ID NO:10); GDF6.2: TRCN0000140097, target sequence: […] (SEQ ID NO:11)) or SMAD1 (SMAD1.1: TRCN0000021781, target sequence: […] (SEQ ID NO:12); SMAD1.2: TRCN0000021782, target sequence: […] (SEQ ID NO:13)) or EGFP (TRCN0000072181, target sequence: […] (SEQ ID NO:14)). Virus was made using a second generation lentiviral packaging system in HEK293T cells and titrated using a p24 ELISA kit (Clontech). Cells were infected with virus at a multiplicity of infection of 2.5 with 8 μg/ml polybrene followed by puromycin selection (2 μm/ml) for 2 days in appropriate media. For overexpression, we used Gateway cloning (Life Technologies) to insert the GDF6 ORF (GE life sciences) or SMAD1DVD ORF (provided by Takenobu Katagiri) into the pLenti CMV Hygro DEST (w117-1) vector (provided by Paul Kaufman). Infection and monitoring was performed as described (C. J. Ceol et al., The histone methyltransferase SETDB 1 is recurrently amplified in melanoma and accelerates its onset. (Nature 471, 513-517 (2011)), except that selection was done with 300 ug/ml hygromycin for 10 days.
Protein extracts were prepared as previously described (S. D. Epstein L B, Hunte-McDonough B, harris C A, Cytokines: A pratical approach (Balkwill F R., ed). 81-93 (1991)). Extracts were separated on 12% SDS-PAGE gels. Blots were probed with primary antibodies (GDF6 (Sigma PRS4691; 1:1000), phospho-SMAD1/5/8 (Cell Signaling 13820; 1:1000), SMAD1 (Cell Signaling 9743; 1:500), Total SMAD1/5/8 (Santa Cruz sc-6031-R; 1:1000), FLAG (Sigma F3165, 1:2000), GAPDH (Abcam 8245; 1:2000)) overnight at 4° C., washed five times in TBS plus 0.1% Tween (TBST) and then incubated with the appropriate HRP-conjugated secondary antibody (Jackson Labs) for 1 hour at room temperature. Membranes were washed five times in TBST and visualized on autoradiography film after incubating with ECL reagent (Supersignal West Pico or Supersignal West Femto; Thermo Scientific).

[6] = system: MeWo melanoma cells; assay: Rescue of GDF6-knockdown melanoma cells by recombinant GDF6 in culture media; type: cell-based, human; details: cells treated with shRNAs targeting GDF6
Text: To determine if secreted GDF6 can facilitate the growth of melanoma cells, we knocked down GDF6 using shRNAs and then treated these knockdown cells with recombinant GDF6 protein (FIG. 10).

Molecule	colonies in clonogenic growth assay after shRNA treatment [1]	colonies in clonogenic growth assay, cells expressing SMAD1 phosphomimic (SMAD1DVD) [1]	colonies in clonogenic growth assay, empty vector-transfected cells [1]	tumor formation (tumor volume) of shRNA-treated cells xenotransplanted into mice [2]	xenograft tumor formation, SMAD1 phosphomimic cells [2]	xenograft tumor formation, empty vector-transfected cells [2]	GDF6 protein expression after shRNA treatment [3]	apoptosis (Annexin5 staining, Caspase 3/7 cleavage) [4]	SMAD1 protein expression after shRNA treatment [5]	SMAD1 protein expression after shRNA treatment ([5]; listed as shSMAD1#2)	SMAD1 protein expression after shRNA treatment ([5]; listed as shSMAD1#1)	proliferation/survival of GDF6-knockdown melanoma cells with recombinant GDF6 added to media [6]	proliferation/survival of GDF6-knockdown melanoma cells with recombinant GDF6 added to media ([6]; listed as recombinant GDF6)
shGDF6#1: shRNA targeting GDF6 (SEQ ID NO:1); GDF6.1 TRCN0000141818 targets SEQ ID NO:10 (GCCAAGTGTTACATTGAGCTT; the letters are possibly those of the target site; listed as Homo sapiens)	far fewer colonies	partially restored	few colonies formed	tumors intermediate between the control-treated (shEGFP) cells and the shGDF6#2-treated cells; also recorded: tumor volumes in xenografts decrease with the degree of GDF6 knockdown	tumor formation accelerated after day 15	only small tumors formed	partially inhibited GDF6 protein expression; also recorded: knockdown of GDF6 protein; also recorded: diminishes expression of GDF6 protein	elevated apoptosis relative to control cells					
shSMAD1-2: shRNA targeting SMAD1 (SEQ ID NO:5); SMAD1.2 TRCN0000021782 targets SEQ ID NO:13 (GCCGATGGACACAAACATGAT; the letters are possibly those of the target site; listed as Homo sapiens)	far fewer colonies							elevated apoptosis relative to control cells	knockdown of SMAD1 protein	significantly decreased; also recorded: decreases expression of SMAD1 protein			
shSMAD1-1: shRNA targeting SMAD1 (SEQ ID NO:4); SMAD1.1 TRCN0000021781 targets SEQ ID NO:12 (CGGTTGCTTATGAGGAACCAA; the letters are possibly those of the target site; listed as Homo sapiens)	far fewer colonies			formed only very small tumors; also recorded: tumor volumes in xenografts decrease				elevated apoptosis relative to control cells	knockdown of SMAD1 protein		significantly decreased; also recorded: decreases expression of SMAD1 protein		
shGDF6#2: shRNA targeting GDF6 (SEQ ID NO:2); GDF6.2 TRCN0000140097 targets SEQ ID NO:11 (GTGTCCATGCTCTCAGACAAA; the letters are possibly those of the target site; listed as Homo sapiens)	far fewer colonies	partially restored	few colonies formed	very little tumor formation; also recorded: formed tumors more slowly than control cells; also recorded: tumor volumes in xenografts decrease with the degree of GDF6 knockdown	tumor formation accelerated after day 15	only small tumors formed	more effective than shGDF6#1; also recorded: knockdown of GDF6 protein; also recorded: diminishes expression of GDF6 protein	elevated apoptosis relative to control cells					
B1												rescued the melanoma cells from undergoing GDF6 shRNA-induced apoptosis; also recorded: proliferation of GDF6-knockdown cells was restored	able to sustain their proliferation
